In patent publication US20030005484A1, “Microbiocidal and pesticidal aromatic aldehydes” (ProGuard, Inc., priority 1994, published 2003):

Test system: melon aphid (Aphis gossypii Glover)
Assay: melon aphid plant foliar bioassay on chrysanthemum
Assay type: in vivo
Conditions: for Mean Number of Aphid Nymphs Per Leaf: sprayed to runoff, after 36 hours, pre-count 60
Description: Treatment of melon aphid (Aphis gossypii Glover) was conducted as follows. Chrysantemums (C. morifolum) were used for melon aphid plant foliar bioassays. Plants were grown in […] pots in planting soil in greenhouse. Flowering plants were infested and pre-count population size for each plant were taken and number of mean of aphids nymphs per leaf calculated. The plants were sprayed to runoff (about 5 ml) with an aqueous formulation containing 1,000 ppm, 3,000 ppm, and 10,000 ppm concentration of cinnamic aldehyde, and a negative control containing only H2O. After 36 hours, the number of insects on the leaves sprayed with a given test formulation was determined and compared with that of insects on leaves sprayed with negative control only. Mean number of aphid nymphs per leaf were determined to be less than 10 for each cinnamic aldehyde concentration as compared to a pre-count mean of about 60.

With `O=C/C=C/c1ccccc1` [cinnamic aldehyde] the “Mean Number of Aphid Nymphs Per Leaf” value (CNMA 1,000 ppm in H2O) was 6 ± 3, the “Mean Number of Aphid Nymphs Per Leaf” value (CNMA 3,000 ppm in H2O) was 4 ± 3 and the “Mean Number of Aphid Nymphs Per Leaf” value (CNMA 10,000 ppm in H2O) was 1 ± 1. The “Mean number of aphid nymphs per leaf” value (each concentration (1,000, 3,000, 10,000 ppm), pre-count mean of about 60) was “less than 10”.
